Assay results reported in article PMC8409435 (Journal of molecular biology, 2021).
Where no end group is shown, it is not given here.

Tests used:
[1] = target: PKA-C^E31V (catalytic α subunit of cAMP-dependent protein kinase A) (Homo sapiens, UniProt P17612, E32V); experiment: steady-state coupled enzyme assay; format: biochemical
[2] = target: PKA-C^WT (catalytic α subunit of cAMP-dependent protein kinase A) (Homo sapiens, UniProt P17612); experiment: steady-state coupled enzyme assay; format: biochemical

LRRASLG [Kemptide]
steady-state coupled enzyme assay (kcat/KM) [1]: 0.46 ± 0.04
steady-state coupled enzyme assay (kcat/KM) [2]: 0.41 ± 0.05
